# According to patent US7381401B2, “T cell anergy is reversed by active Ras and regulated by diacylglycerol kinase” (The University of Chicago, priority 2004, dated 2008):
# Key:
# [1] = test system: CAR transgenic Th1 clones; assay: IL-2 production by CAR transgenic Th1 clones overexpressing DGK isoforms; format: cell-based, mouse
# Procedure: Adenoviral vectors. The CA H-Ras mutant Ras61L cDNA was provided by Dr. F. Fitch (University of Chicago). Construction of recombinant adenoviral vectors was performed using a two-cosmid system protocol described by Wang et al. (2000). Briefly, a gene expression unit containing a human ubiquitin promoter and either HRas61L, GFP, DGKα, kinase-dead DGKα, DGKζ, or no cDNA was inserted into a left-end plasmid, pLEP. pLEPUb-Ras61L and the right-end-plasmid, pREP, containing the E-deleted adenovirus type 2 (Ad2) genome, were digested, ligated and resulting cosmids were packaged into lambda phages. The DGKα kinase-dead DGKα, and DGKζ inserts also have a myc epitope tag. Competent bacteria were transduced with lambda phages and double selection of growing colonies was performed on Amp/Tet plates. Recombinant adenoviruses were then generated by transfection of 293 cells with purified, linearized adenoviral vector DNA. High titer stock solutions were obtained by large-scale infection of 293 cells followed by cesium chloride purification of complete viral particles. Plaque forming units (pfu) of virus preparations were determined by TCID 50 method (AdEasy Vector Systems Manual, Quantum Biotechnologies, Canada). Working solutions of adenoviral vectors were diluted in storage buffer (Nyberg-Hoffman and Aguilar-Cordova, 1999), and stored at −80° C. until needed. […]
# [2] = test system: anergic Th1 cells; assay: Toxicity of the DGK inhibitor to anergic Th1 cells; format: cell-based, mouse; settings: higher concentrations (data not shown)
# Text: If increased DGK activity is contributing to diminished Ras activation and IL-2 production in the anergic state, then inhibition of this enzyme should result in increased IL-2 production by anergic cells. To explore this possibility, the pharmacologic inhibitor R59022 was employed (Jiang et al., 2000). […] Approximately 40% of this IL-2 production was recovered by stimulation with PMA+Ionomycin, arguing that that proportion was mediated by a proximal signaling defect.
# [3] = biological target: DGKα (Homo sapiens, UniProt P23743); settings: cited from earlier work
# Chain of DGKα (P23743 whole entry, species assumed): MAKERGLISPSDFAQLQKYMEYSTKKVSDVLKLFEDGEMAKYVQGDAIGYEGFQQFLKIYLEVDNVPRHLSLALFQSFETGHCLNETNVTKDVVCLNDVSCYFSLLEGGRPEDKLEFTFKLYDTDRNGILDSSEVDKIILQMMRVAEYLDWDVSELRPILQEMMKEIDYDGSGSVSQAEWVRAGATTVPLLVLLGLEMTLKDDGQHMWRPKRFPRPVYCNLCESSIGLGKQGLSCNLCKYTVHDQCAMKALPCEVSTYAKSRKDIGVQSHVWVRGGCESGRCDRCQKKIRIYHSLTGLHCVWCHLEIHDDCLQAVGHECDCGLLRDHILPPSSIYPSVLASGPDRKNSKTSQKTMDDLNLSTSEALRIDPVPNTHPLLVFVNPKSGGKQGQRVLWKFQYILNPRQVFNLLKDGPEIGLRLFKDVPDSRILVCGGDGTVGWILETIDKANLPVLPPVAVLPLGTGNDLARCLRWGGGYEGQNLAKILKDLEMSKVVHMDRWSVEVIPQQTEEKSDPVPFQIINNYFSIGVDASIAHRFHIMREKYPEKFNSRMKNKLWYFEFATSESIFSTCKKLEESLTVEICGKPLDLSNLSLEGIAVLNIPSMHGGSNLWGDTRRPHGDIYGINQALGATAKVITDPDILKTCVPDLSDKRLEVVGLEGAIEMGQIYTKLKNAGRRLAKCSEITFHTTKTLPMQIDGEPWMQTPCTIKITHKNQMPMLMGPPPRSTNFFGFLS
# [4] = test system: anergic Th1 cells; assay: IL-2 production by anergic Th1 clone pGL10 (ELISA); format: cell-based, mouse
# Text: (§1) Induction of T cell anergy.
# [5] = test system: anergic CAR Tg Th1 cells; assay: IL-2 production by anergic CAR Tg Th1 cells (ELISA); format: cell-based, mouse; settings: stimulated with anti-CD3/anti-CD28 beads
# Text: Induction of T cell anergy. […] Adenoviral transduction of […] cells. […] T cell activation.
# [6] = test system: Egr2 mRNA; assay: Semi-quantitative RT-PCR of Egr2 mRNA in pGL10 cells; format: cell-based, mouse; settings: pGL10 cells treated with ionomycin
# Procedure: as §1
# (§2) RT-PCR. Total RNA was extracted using Trizol, and cDNA was generated using oligo-dT as a primer. PCR™ was done with titrated doses of cDNA using primers specific for the following genes: […]
# (§3) Between 36 and 39 cycles were performed at an annealing temperature of 55° C. Products were visualized on ethidium bromide-stained 1% agarose gels.
# [7] = test system: DGK-ζ mRNA; assay: Semi-quantitative RT-PCR of DGK-ζ mRNA in pGL10 cells; format: cell-based, mouse; settings: pGL10 cells treated with ionomycin
# Procedure: as §1, §2, §3
compound,measurement,setting,value
CCCCCCCCCCCCCC(=O)O[C@@H]1[C@@H](C)[C@@]2(O)[C@@H](C=C(CO)C[C@]3(O)C(=O)C(C)=C[C@@H]23)[C@@H]2C(C)(C)[C@]12OC(C)=O [PMA],IL-2 production on addition of exogenous PMA,[1]; cells transduced to express DGKα,restored IL-2 production
same,IL-2 production on addition of exogenous PMA,[1]; cells transduced to express DGKζ,restored IL-2 production
"Cc1nc2sccn2c(=O)c1CCN1CCC(=C(c2ccccc2)c2ccc(F)cc2)CC1 [R59022, 6-[2-(4-[(4-fluorophenyl)phenyl-methylene]-1-piperidinyl)ethyl]-7-methyl-5H-thiazolo[3,2-]pyrimidine-5-one]",toxicity to the cells,[2],toxic to the cells
same,DGK isoform preference,[3],preferentially inhibits DGKα
same,recovery of IL-2 production,"[4]; anergic Th1 clone pGL10 stimulated with anti-CD3+anti-CD28, increasing concentrations, 25 min pre-incubation, ELISA",significant recovery of IL-2 production in a dose-dependent fashion
same,cytokine release by the inhibitor alone,"[4]; anergic cells, no anti-CD3/anti-CD28 stimulation (data not shown)",did not induce detectable cytokine release
same,IL-2 production,[5],partially restored IL-2 production
C[C@H](CCC(=O)O)C[C@H](C)C[C@H](C)C(=O)/C=C(\O)[C@H](C)C[C@H](C)C/C=C/[C@@H](C)[C@@H](O)[C@@H](C)[C@@H](O)C[C@@H]1CC[C@@](C)([C@H]2CC[C@@](C)([C@@H](C)O)O2)O1 [ionomycin],Egr2 mRNA,[6],only a minimal increase
same,expression of DGK-ζ mRNA,[7],upregulated
